In the supplement of paper PMC11451515:

Test system: P12-Ichikawa
Assay: cell viability relative to DMSO control; higher = less cytotoxic
Settings: 48 h
Outline: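 Cells were incubated for 48 h at 37°C before CellTiter-Glo One luminescence was read. The cells were NOMO1 or SEM (500 cells/well) or P12-Ichikawa (1000 cells/well) leukemia cells, adapted for at least four passages in each medium and seeded in 1536-well plates (5 μl). Dosing used library compounds in DMSO applied by pin over 11 threefold points, 47 μM to 0.79 nM. Viability is the per-plate percentage of DMSO wells, with cell-free wells as background.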

[1] = HPLM + 10% dialyzed FBS, 0.000781 µM
[2] = HPLM + 10% dialyzed FBS, 0.00234 µM
[3] = HPLM + 10% dialyzed FBS, 0.00702 µM
[4] = HPLM + 10% dialyzed FBS, 0.0211 µM
[5] = HPLM + 10% dialyzed FBS, 0.0632 µM
[6] = HPLM + 10% dialyzed FBS, 0.19 µM
[7] = HPLM + 10% dialyzed FBS, 0.569 µM
[8] = HPLM + 10% dialyzed FBS, 1.71 µM
[9] = HPLM + 10% dialyzed FBS, 5.12 µM
[10] = HPLM + 10% dialyzed FBS, 15.4 µM
[11] = HPLM + 10% dialyzed FBS, 46.1 µM
[12] = RPMI 5 mM glucose + 10% FBS, 0.000781 µM
[13] = RPMI 5 mM glucose + 10% FBS, 0.00234 µM
[14] = RPMI 5 mM glucose + 10% FBS, 0.00702 µM
[15] = RPMI 5 mM glucose + 10% FBS, 0.0211 µM
[16] = RPMI 5 mM glucose + 10% FBS, 0.0632 µM
[17] = RPMI 5 mM glucose + 10% FBS, 0.19 µM
[18] = RPMI 5 mM glucose + 10% FBS, 0.569 µM
[19] = RPMI 5 mM glucose + 10% FBS, 1.71 µM
[20] = RPMI 5 mM glucose + 10% FBS, 5.12 µM
[21] = RPMI 5 mM glucose + 10% FBS, 15.4 µM
[22] = RPMI 5 mM glucose + 10% FBS, 46.1 µM
[23] = RPMI 5 mM glucose + 10% dialyzed FBS, 0.000781 µM
[24] = RPMI 5 mM glucose + 10% dialyzed FBS, 0.00234 µM
[25] = RPMI 5 mM glucose + 10% dialyzed FBS, 0.00702 µM
[26] = RPMI 5 mM glucose + 10% dialyzed FBS, 0.0211 µM
[27] = RPMI 5 mM glucose + 10% dialyzed FBS, 0.0632 µM
[28] = RPMI 5 mM glucose + 10% dialyzed FBS, 0.19 µM
[29] = RPMI 5 mM glucose + 10% dialyzed FBS, 0.569 µM
[30] = RPMI 5 mM glucose + 10% dialyzed FBS, 1.71 µM
[31] = RPMI 5 mM glucose + 10% dialyzed FBS, 5.12 µM
[32] = RPMI 5 mM glucose + 10% dialyzed FBS, 15.4 µM
[33] = RPMI 5 mM glucose + 10% dialyzed FBS, 46.1 µM

Row | Structure (SMILES) | cell viability [1] [%] | cell viability [2] [%] | cell viability [3] [%] | cell viability [4] [%] | cell viability [5] [%] | cell viability [6] [%] | cell viability [7] [%] | cell viability [8] [%] | cell viability [9] [%] | cell viability [10] [%] | cell viability [11] [%] | cell viability [12] [%] | cell viability [13] [%] | cell viability [14] [%] | cell viability [15] [%] | cell viability [16] [%] | cell viability [17] [%] | cell viability [18] [%] | cell viability [19] [%] | cell viability [20] [%] | cell viability [21] [%] | cell viability [22] [%] | cell viability [23] [%] | cell viability [24] [%] | cell viability [25] [%] | cell viability [26] [%] | cell viability [27] [%] | cell viability [28] [%] | cell viability [29] [%] | cell viability [30] [%] | cell viability [31] [%] | cell viability [32] [%] | cell viability [33] [%]
1 | Cc1nc(C(=O)NCC(=O)O)c(O)c2ccc(Oc3ccccc3)cc12 | 111 | 97.3 | 107 | 105 | 113 | 91.4 | 98.4 | 99.5 | 94.8 | 102 | 98.7 | 107 | 111 | 115 | 105 | 110 | 102 | 110 | 101 | 103 | 99.2 | 85.5 | 99.4 | 101 | 102 | 104 | 101 | 98.8 | 101 | 94.8 | 96.9 | 93.6 | 77
2 | CC(C)C[C@@H](C(=O)N[C@H](C(=O)OC1CCCC1)c1ccccc1)[C@H](O)C(=O)NO | 109 | 111 | 112 | 114 | 108 | 108 | 104 | 105 | 95.5 | 86.8 | 59.7 | 103 | 119 | 114 | 113 | 107 | 116 | 110 | 93.8 | 89.6 | 69.8 | 37.1 | 112 | 113 | 115 | 116 | 111 | 103 | 110 | 102 | 89 | 89.6 | 35.9
3 | CO[C@H]1C[C@H]2OC[C@@]2(OC(C)=O)[C@H]3[C@H](OC(=O)C4=CC=CC=C4)[C@]5(O)C[C@H](OC(=O)[C@H](O)[C@@H](NC(=O)OC(C)(C)C)C6=CC=CC=C6)/C(=C(/[C@@H](OC)C(=O)[C@]13C)C5(C)C)C | 78.2 | 87.6 | 29.3 | 28.4 | 19 | 18.9 | 18.8 | 20.1 | 12.1 | 13.4 | 7.21 | 69.9 | 81.6 | 70.8 | 30.4 | 11.6 | 15.3 | 15.2 | 15.9 | 10.5 | 10.6 | 10.8 | 73.7 | 71.1 | 67.9 | 34.5 | 28 | 27.7 | 24.2 | 26.1 | 20.2 | 21 | 11.9
4 | O=C(O)CCc1ccc(NCc2cccc(Oc3ccccc3)c2)cc1 | 94.5 | 107 | 102 | 104 | 105 | 111 | 108 | 109 | 108 | 119 | 104 | 99.3 | 105 | 111 | 105 | 118 | 111 | 109 | 109 | 110 | 122 | 118 | 88.6 | 96.5 | 103 | 110 | 103 | 104 | 103 | 104 | 100 | 98.6 | 99.9
5 | Cc1ccc(C)c(OCCCC(C)(C)C(=O)O)c1 | 87 | 92.4 | 90.8 | 95 | 101 | 97.9 | 93.2 | 102 | 106 | 98 | 92.1 | 90 | 86.9 | 84.5 | 90.7 | 91.1 | 92.9 | 89 | 91.7 | 84.1 | 92.4 | 97.1 | 81.2 | 82.9 | 84.3 | 92.6 | 84.5 | 87.7 | 85.5 | 86.6 | 88.8 | 88 | 90
6 | CON(C)C(=O)N1\N=C(/S[C@]1(CCCN)C2=CC=CC=C2)C3=CC(=CC=C3F)F | 46 | 13.4 | 12.4 | 12.8 | 13 | 12.8 | 14.2 | 12.1 | 12.7 | 11.2 | 13.1 | 12 | 17.2 | 17.5 | 16.2 | 16.8 | 17.7 | 16.6 | 13.6 | 14.2 | 12.2 | 11.2 | 24.8 | 28 | 21.3 | 21.4 | 22.5 | 24.6 | 21 | 22.4 | 19.1 | 18.3 | 19.9
7 | CCC1=C2CN3C(=O)\C4=C(/C=C3/C2=NC5=CC=C(O)C=C15)[C@@](O)(CC)C(=O)OC4 | 97 | 95 | 33.6 | 14.5 | 9.38 | 6.95 | 6.95 | 4.6 | 5.03 | 4.34 | 4.16 | 93.6 | 91.9 | 28.2 | 10.6 | 8.05 | 6.33 | 6.06 | 5.12 | 4.73 | 4.49 | 4.85 | 98.3 | 83.8 | 30.2 | 15.1 | 11 | 7.31 | 6.37 | 5.25 | 5.83 | 5.8 | 5
8 | COCCNCCCn1c(C(=O)CF)c(-c2ccc(C)cc2)c2c(N)ncnc21 | 108 | 95.8 | 104 | 102 | 111 | 103 | 102 | 95.1 | 85.3 | 94.5 | 87.2 | 118 | 100 | 108 | 103 | 107 | 104 | 101 | 103 | 104 | 96.7 | 91.7 | 103 | 96.7 | 116 | 98 | 106 | 101 | 105 | 89.8 | 94.7 | 83.7 | 72.2
9 | NC(=O)c1ncn([C@@H]2O[C@H](CO)[C@@H](O)[C@H]2O)c1N | 120 | 124 | 120 | 119 | 122 | 121 | 122 | 117 | 115 | 115 | 104 | – | – | – | – | – | – | – | – | – | – | – | – | – | – | – | – | – | – | – | – | – | –
10 | CC(=O)O[C@@]12CO[C@@H]1C[C@H](O)[C@]3(C)[C@@H]2[C@H](OC(=O)C4=CC=CC=C4)[C@]5(O)C[C@H](O)/C(=C(/[C@@H](O)C3=O)C5(C)C)C | 97.5 | 106 | 72.1 | 115 | 114 | 117 | 120 | 120 | 98.1 | 36.6 | 13.7 | 100 | 110 | 69.7 | 113 | 116 | 119 | 122 | 113 | 88.6 | 28.7 | 7.33 | 100 | 114 | 77.5 | 117 | 113 | 112 | 121 | 119 | 104 | 43.9 | 18.5
11 | Cc1ccc(Nc2nccc(N(C)c3ccc4c(C)n(C)nc4c3)n2)cc1[S+](N)(=O)[O-] | 105 | 102 | 105 | 110 | 108 | 114 | 113 | 111 | 104 | 91.9 | 20.8 | 106 | 115 | 109 | 109 | 113 | 116 | 113 | 111 | 120 | 78.4 | 23.7 | 99.7 | 101 | 104 | 102 | 102 | 99.9 | 110 | 107 | 108 | 83.3 | 27.8
12 | CNCCN(C)Cc1c[nH]nc1-c1ccc(O[C@H]2C[C@H](OCCC3CCOCC3)C2)cc1 | 104 | 120 | 124 | 119 | 122 | 122 | 135 | 123 | 95.1 | 90.1 | 118 | – | – | – | – | – | – | – | – | – | – | – | – | – | – | – | – | – | – | – | – | – | –
13 | CC(=O)[C@H]1CC[C@H]2[C@@H]3C/C=C4/C[C@@H](O)CC[C@]4(C)[C@H]3CC[C@]12C | 120 | 124 | 114 | 116 | 112 | 120 | 124 | 115 | 114 | 114 | 110 | – | – | – | – | – | – | – | – | – | – | – | 112 | 120 | 129 | 112 | 124 | 115 | 126 | 125 | 112 | 104 | 103
14 | CN1\C(=C(O)/C2=C(C=C(Cl)S2)[S+]1([O-])=O)C(=O)NC3=NC=CC=C3 | 125 | 123 | 118 | 107 | 122 | 119 | 113 | 112 | 110 | 104 | 100 | 124 | 125 | 118 | 116 | 128 | 114 | 121 | 128 | 123 | 118 | 106 | 121 | 119 | 125 | 115 | 114 | 118 | 121 | 117 | 104 | 98.1 | 96.2
15 | Cc1ccnc(N[S+](=O)([O-])c2ccc(NC(=O)Nc3ccc([S+](=O)([O-])Nc4nccc(C)n4)cc3)cc2)n1 | 92.4 | 97.5 | 104 | 108 | 102 | 47.4 | 56.9 | 7.44 | 8.58 | 9.29 | 7.33 | 87.9 | 85.5 | 94.6 | 106 | 114 | 58.6 | 60.3 | 7.51 | 7.48 | 8.73 | 5.6 | 86.9 | 97.1 | 95.4 | 101 | 102 | 46.7 | 59.4 | 7.71 | 7.35 | 8.39 | 5.02
16 | Cc1ccc([S+](=O)([O-])NC(=O)NN2CC3CCCC3C2)cc1 (stereo not drawn) | 107 | 110 | 110 | 114 | 112 | 106 | 100 | 80.8 | 66.4 | 44.5 | 22.7 | 110 | 108 | 103 | 102 | 113 | 108 | 97.7 | 70.5 | 57.3 | 34.7 | 20.1 | 107 | 109 | 116 | 106 | 112 | 102 | 93.4 | 72.4 | 51.4 | 36.3 | 23.9
